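Tested at 5 concentrations; 48 h exposure; 96-well plates; endpoints linearly interpolated, else capped at highest concentration. GI50 is the concentration that inhibits growth by half. Definition used: TGI = concentration required for complete inhibition of growth.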
Columns and labels:
Test in all cases: NCI anticancer screen, dose series, 48 h
EKVX NSCLC = system: EKVX NSCLC
SF-539 CNS = system: SF-539 CNS
KM12 colon = system: KM12 colon
CAKI-1 renal = system: CAKI-1 renal
NCI-H226 lung = system: NCI-H226 lung
SR leukemia = system: SR leukemia
ACHN renal = system: ACHN renal
A498 renal = system: A498 renal
SN12C renal = system: SN12C renal
786-0 renal = system: 786-0 renal
RPMI-8226 leukemia = system: RPMI-8226 leukemia
A549 NSCLC = system: A549 NSCLC
NCI-H522 lung = system: NCI-H522 lung
SF-295 CNS = system: SF-295 CNS
DU-145 prostate = system: DU-145 prostate
NCI-H23 lung = system: NCI-H23 lung
K-562 leukemia = system: K-562 leukemia
RXF 393 renal = system: RXF 393 renal
HCT-15 colon = system: HCT-15 colon
MOLT-4 leukemia = system: MOLT-4 leukemia
MALME-3M melanoma = system: MALME-3M melanoma
SNB-19 CNS = system: SNB-19 CNS
HOP-92 NSCLC = system: HOP-92 NSCLC
OVCAR-4 ovarian = system: OVCAR-4 ovarian
HL-60(TB) leukemia = system: HL-60(TB) leukemia
OVCAR-3 ovarian = system: OVCAR-3 ovarian
NCI-H460 lung = system: NCI-H460 lung
BT-549 breast = system: BT-549 breast
UACC-62 melanoma = system: UACC-62 melanoma
UACC-257 melanoma = system: UACC-257 melanoma
SK-MEL-5 melanoma = system: SK-MEL-5 melanoma
COLO 205 colon = system: COLO 205 colon
SW-620 colon = system: SW-620 colon
PC-3 prostate = system: PC-3 prostate
IGROV1 ovarian = system: IGROV1 ovarian
MDA-MB-435 = system: MDA-MB-435
OVCAR-5 ovarian = system: OVCAR-5 ovarian
HS 578T breast = system: HS 578T breast
SK-MEL-2 melanoma = system: SK-MEL-2 melanoma
M14 melanoma = system: M14 melanoma
MCF7 breast = system: MCF7 breast
SK-MEL-28 melanoma = system: SK-MEL-28 melanoma
MDA-MB-231 breast = system: MDA-MB-231 breast
HCC-2998 colon = system: HCC-2998 colon
HT29 colon = system: HT29 colon
UO-31 renal = system: UO-31 renal
U251 CNS = system: U251 CNS
SK-OV-3 ovarian = system: SK-OV-3 ovarian
T-47D breast = system: T-47D breast
OVCAR-8 ovarian = system: OVCAR-8 ovarian
LOX IMVI melanoma = system: LOX IMVI melanoma
TK-10 renal = system: TK-10 renal
CCRF-CEM leukemia = system: CCRF-CEM leukemia
HOP-62 NSCLC = system: HOP-62 NSCLC
SNB-75 CNS = system: SNB-75 CNS
NCI/ADR-RES ovarian = system: NCI/ADR-RES ovarian
SF-268 CNS = system: SF-268 CNS
HCT-116 colon = system: HCT-116 colon

`O=S(=O)(Nc1ccc(Cl)cc1)c1ccc(-c2cnc(C3CC3)o2)cc1` was tested, and the GI50 (EKVX NSCLC) was 2.13 µM, the TGI (EKVX NSCLC) was 18.8 µM and the GI50 (SF-539 CNS) was 0.513 µM. For the same molecule, the TGI (SF-539 CNS) was 3.43 µM, the GI50 (KM12 colon) was 0.431 µM and the TGI (KM12 colon) was 16.2 µM. The GI50 (CAKI-1 renal) was 0.586 µM, the TGI (CAKI-1 renal) was 16.5 µM and the GI50 (NCI-H226 lung) was 4.86 µM. It also gave a TGI (NCI-H226 lung) of 23.1 µM, a GI50 (SR leukemia) of 0.21 µM and a TGI (SR leukemia) of 28.5 µM. It also gave a GI50 (ACHN renal) of 1.25 µM, a TGI (ACHN renal) of 18.1 µM and a GI50 (A498 renal) of 0.168 µM. It also gave a TGI (A498 renal) of 0.732 µM, a GI50 (SN12C renal) of 1.09 µM and a TGI (SN12C renal) of 19.5 µM. It also gave a GI50 (786-0 renal) of 1.67 µM, a TGI (786-0 renal) of 20.2 µM and a GI50 (RPMI-8226 leukemia) of 1.06 µM. For the same molecule, the TGI (RPMI-8226 leukemia) was 22.7 µM, the GI50 (A549 NSCLC) was 1.49 µM and the TGI (A549 NSCLC) was 22.3 µM. For the same molecule, the GI50 (NCI-H522 lung) was 0.367 µM, the TGI (NCI-H522 lung) was 11.1 µM and the GI50 (SF-295 CNS) was 0.425 µM. The TGI (SF-295 CNS) was 12.5 µM, the GI50 (DU-145 prostate) was 2.06 µM and the TGI (DU-145 prostate) was 15.3 µM. It also gave a GI50 (NCI-H23 lung) of 2.28 µM, a TGI (NCI-H23 lung) of 16.4 µM and a GI50 (K-562 leukemia) of 0.353 µM. It also gave a TGI (K-562 leukemia) of over 75 µM, a GI50 (RXF 393 renal) of 0.683 µM and a TGI (RXF 393 renal) of 4.98 µM. It also gave a GI50 (HCT-15 colon) of 0.368 µM, a TGI (HCT-15 colon) of 15.1 µM and a GI50 (MOLT-4 leukemia) of 0.786 µM. For the same molecule, the TGI (MOLT-4 leukemia) was 41.3 µM, the GI50 (MALME-3M melanoma) was 0.743 µM and the TGI (MALME-3M melanoma) was 20.3 µM. The GI50 (SNB-19 CNS) was 0.847 µM, the TGI (SNB-19 CNS) was 18.2 µM and the GI50 (HOP-92 NSCLC) was 1.81 µM. The TGI (HOP-92 NSCLC) was 18.1 µM, the GI50 (OVCAR-4 ovarian) was 2.64 µM and the TGI (OVCAR-4 ovarian) was 17.9 µM. The GI50 (HL-60(TB) leukemia) was 0.388 µM, the TGI (HL-60(TB) leukemia) was 8.58 µM and the GI50 (OVCAR-3 ovarian) was 0.372 µM. For the same molecule, the TGI (OVCAR-3 ovarian) was 3.73 µM, the GI50 (NCI-H460 lung) was 0.395 µM and the TGI (NCI-H460 lung) was 7.28 µM. It also gave a GI50 (BT-549 breast) of 0.637 µM, a TGI (BT-549 breast) of 21.4 µM and a GI50 (UACC-62 melanoma) of 0.584 µM. The TGI (UACC-62 melanoma) was 13.7 µM, the GI50 (UACC-257 melanoma) was 8.36 µM and the TGI (UACC-257 melanoma) was 28.8 µM. For the same molecule, the GI50 (SK-MEL-5 melanoma) was 0.768 µM, the TGI (SK-MEL-5 melanoma) was 12.8 µM and the GI50 (COLO 205 colon) was 1.27 µM. The TGI (COLO 205 colon) was 10 µM, the GI50 (SW-620 colon) was 0.378 µM and the TGI (SW-620 colon) was 14 µM. It also gave a GI50 (PC-3 prostate) of 1 µM, a TGI (PC-3 prostate) of 15.5 µM and a GI50 (IGROV1 ovarian) of 0.637 µM. The TGI (IGROV1 ovarian) was 15.2 µM, the GI50 (MDA-MB-435) was 0.15 µM and the TGI (MDA-MB-435) was 0.511 µM. The GI50 (OVCAR-5 ovarian) was 3.69 µM, the TGI (OVCAR-5 ovarian) was 17.9 µM and the GI50 (HS 578T breast) was 0.372 µM. It also gave a TGI (HS 578T breast) of 6.86 µM, a GI50 (SK-MEL-2 melanoma) of 0.766 µM and a TGI (SK-MEL-2 melanoma) of 21.2 µM. For the same molecule, the GI50 (M14 melanoma) was 0.406 µM, the TGI (M14 melanoma) was 16.9 µM and the GI50 (MCF7 breast) was 0.383 µM. For the same molecule, the TGI (MCF7 breast) was 15 µM, the GI50 (SK-MEL-28 melanoma) was 5.72 µM and the TGI (SK-MEL-28 melanoma) was 21.9 µM. For the same molecule, the GI50 (MDA-MB-231 breast) was 1.67 µM, the TGI (MDA-MB-231 breast) was 15.1 µM and the GI50 (HCC-2998 colon) was 2.02 µM. It also gave a TGI (HCC-2998 colon) of 15.3 µM, a GI50 (HT29 colon) of 0.414 µM and a TGI (HT29 colon) of 14.4 µM. For the same molecule, the GI50 (UO-31 renal) was 1.14 µM, the TGI (UO-31 renal) was 15.5 µM and the GI50 (U251 CNS) was 0.659 µM. For the same molecule, the TGI (U251 CNS) was 17.6 µM, the GI50 (SK-OV-3 ovarian) was 2.07 µM and the TGI (SK-OV-3 ovarian) was 15.6 µM. For the same molecule, the GI50 (T-47D breast) was 0.86 µM, the TGI (T-47D breast) was 17.4 µM and the GI50 (OVCAR-8 ovarian) was 2.54 µM. The TGI (OVCAR-8 ovarian) was 22.4 µM, the GI50 (LOX IMVI melanoma) was 0.595 µM and the TGI (LOX IMVI melanoma) was 18.6 µM. The GI50 (TK-10 renal) was 6.49 µM, the TGI (TK-10 renal) was 21.9 µM and the GI50 (CCRF-CEM leukemia) was 0.564 µM. For the same molecule, the TGI (CCRF-CEM leukemia) was 19.9 µM, the GI50 (HOP-62 NSCLC) was 0.791 µM and the TGI (HOP-62 NSCLC) was 18.6 µM. It also gave a GI50 (SNB-75 CNS) of 0.191 µM, a TGI (SNB-75 CNS) of 1.54 µM and a GI50 (NCI/ADR-RES ovarian) of 0.41 µM. It also gave a TGI (NCI/ADR-RES ovarian) of 8.94 µM, a GI50 (SF-268 CNS) of 1.85 µM and a TGI (SF-268 CNS) of 23 µM. The GI50 (HCT-116 colon) was 0.413 µM and the TGI (HCT-116 colon) was 15.9 µM.

Source: PubChem BioAssay (NCI)
